Patent US10357493B2, “Metalloenzyme inhibitor compounds” (Selenity Therapeutics (Bermuda), Ltd., priority 2017, dated 2019)

Assays:
HDAC1 = HDAC1 (Homo sapiens (Human), UniProt Q13547); test: HDAC1 enzymatic assay; assay type: biochemical; settings: read-out: Human HDAC1 IC50
How it was run: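 HDAC1 activity was measured in duplicate 50 μl reactions containing 0.5 ng HDAC1, 10 uM of HDAC substrate, and test compound in buffer (50 mM Tris-HCl, pH 7.4, 137 mM NaCl, 2.7 mM KCl, 0.05% Tween 20, 5 μg BSA) with 1% DMSO, incubated 17 hours at room temperature. HDAC Developer was then added for 20 minutes and fluorescence read at 360/460 nm.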

HDAC6 = HDAC6 (Homo sapiens (Human), UniProt Q9UBN7); test: HDAC6 enzymatic assay; assay type: biochemical; settings: read-out: Human HDAC6 IC50
HDAC6, sequence (Q9UBN7 whole entry): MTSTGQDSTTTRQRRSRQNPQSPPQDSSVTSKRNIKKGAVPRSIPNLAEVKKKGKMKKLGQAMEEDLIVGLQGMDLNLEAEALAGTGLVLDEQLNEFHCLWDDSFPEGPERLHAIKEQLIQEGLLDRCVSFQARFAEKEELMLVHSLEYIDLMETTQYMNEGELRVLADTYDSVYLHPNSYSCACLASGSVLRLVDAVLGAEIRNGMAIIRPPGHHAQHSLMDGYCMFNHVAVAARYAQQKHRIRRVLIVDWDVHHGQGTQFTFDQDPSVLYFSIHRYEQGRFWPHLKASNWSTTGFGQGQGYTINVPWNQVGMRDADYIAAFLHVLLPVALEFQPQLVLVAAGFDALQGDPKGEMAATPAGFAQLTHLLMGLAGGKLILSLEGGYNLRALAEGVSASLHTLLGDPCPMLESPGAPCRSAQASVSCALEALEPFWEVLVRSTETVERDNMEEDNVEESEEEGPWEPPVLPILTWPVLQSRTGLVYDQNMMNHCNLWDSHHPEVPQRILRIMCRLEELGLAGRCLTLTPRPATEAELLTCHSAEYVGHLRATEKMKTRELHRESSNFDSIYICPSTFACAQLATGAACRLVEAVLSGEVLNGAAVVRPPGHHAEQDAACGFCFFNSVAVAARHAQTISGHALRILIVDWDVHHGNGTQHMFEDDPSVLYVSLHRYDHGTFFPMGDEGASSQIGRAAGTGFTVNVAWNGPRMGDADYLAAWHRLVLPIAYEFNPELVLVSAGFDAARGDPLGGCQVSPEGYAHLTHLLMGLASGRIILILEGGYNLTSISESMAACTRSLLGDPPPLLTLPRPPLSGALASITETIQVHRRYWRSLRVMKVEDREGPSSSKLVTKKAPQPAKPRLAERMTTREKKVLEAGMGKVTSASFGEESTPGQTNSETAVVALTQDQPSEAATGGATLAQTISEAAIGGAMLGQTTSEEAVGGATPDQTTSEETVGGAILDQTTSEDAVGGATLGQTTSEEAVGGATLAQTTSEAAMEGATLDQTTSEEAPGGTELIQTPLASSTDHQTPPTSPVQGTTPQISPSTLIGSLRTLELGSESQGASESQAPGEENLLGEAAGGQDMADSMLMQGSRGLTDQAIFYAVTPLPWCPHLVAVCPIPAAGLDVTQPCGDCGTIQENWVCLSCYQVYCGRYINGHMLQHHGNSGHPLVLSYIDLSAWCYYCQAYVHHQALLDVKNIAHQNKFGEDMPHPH
How it was run: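 Human HDAC6 activity was measured in duplicate 50 μl reactions holding 2 ng HDAC6, 10 uM of HDAC substrate and test compound in HDAC assay buffer (50 mM Tris-HCl, pH 7.4, 137 mM NaCl, 2.7 mM KCl, 0.05% Tween 20, 5 μg BSA) with 1% DMSO, for 17 hours at room temperature. HDAC Developer was added for 20 minutes before reading fluorescence at 360/460 nm.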

HDAC1, sequence (Q13547 whole entry): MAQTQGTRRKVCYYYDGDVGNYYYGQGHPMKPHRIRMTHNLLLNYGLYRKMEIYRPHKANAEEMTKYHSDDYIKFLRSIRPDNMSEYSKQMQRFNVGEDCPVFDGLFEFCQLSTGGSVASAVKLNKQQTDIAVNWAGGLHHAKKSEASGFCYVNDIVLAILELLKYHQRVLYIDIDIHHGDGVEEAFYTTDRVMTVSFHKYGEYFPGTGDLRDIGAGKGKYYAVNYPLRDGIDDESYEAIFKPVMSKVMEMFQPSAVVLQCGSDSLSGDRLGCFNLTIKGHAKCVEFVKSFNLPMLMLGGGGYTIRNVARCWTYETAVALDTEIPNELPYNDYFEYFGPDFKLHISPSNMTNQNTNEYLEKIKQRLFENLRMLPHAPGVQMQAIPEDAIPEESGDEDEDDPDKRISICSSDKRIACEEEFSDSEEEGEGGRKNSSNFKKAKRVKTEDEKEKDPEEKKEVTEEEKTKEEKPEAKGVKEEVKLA

## COc1ccccc1C1(Nc2ncc(-c3nnc(C(F)(F)F)o3)cn2)CC1 [Example 40, N-(1-(2-methoxyphenyl)cyclopropyl)-5-(5-(trifluoromethyl)-1,3,4-oxadiazol-2-yl)pyrimidin-2-amine]
HDAC1
  IC50: > 30000 nM
HDAC6
  IC50: 220 nM

## COc1cccc(C2(Nc3ncc(-c4nnc(C(F)(F)F)o4)cn3)CC2)c1 [Example 41, N-(1-(3-methoxyphenyl)cyclopropyl)-5-(5-(trifluoromethyl)-1,3,4-oxadiazol-2-yl)pyrimidin-2-amine]
HDAC1
  IC50: > 30000 nM
HDAC6
  IC50: 250 nM

## COc1ccc(C2(Nc3ncc(-c4nnc(C(F)(F)F)o4)cn3)CC2)cc1 [Example 42, N-(1-(4-methoxyphenyl)cyclopropyl)-5-(5-(trifluoromethyl)-1,3,4-oxadiazol-2-yl)pyrimidin-2-amine]
HDAC1
  IC50: > 30000 nM
HDAC6
  IC50: 250 nM

## COc1cccc(C2(Nc3ncc(-c4nnc(C(F)F)o4)cn3)CC2)c1 [Example 43, 5-(5-(difluoromethyl)-1,3,4-oxadiazol-2-yl)-N-(1-(3-methoxyphenyl)cyclopropyl)pyrimidin-2-amine]
HDAC1
  IC50: > 30000 nM
HDAC6
  IC50: 39 nM

## COc1ccc(C2(Nc3ncc(-c4nnc(C(F)F)o4)cn3)CC2)cc1 [Example 44, 5-(5-(difluoromethyl)-1,3,4-oxadiazol-2-yl)-N-(1-(4-methoxyphenyl)cyclopropyl)pyrimidin-2-amine]
HDAC1
  IC50: > 30000 nM
HDAC6
  IC50: 44 nM

## FC(F)c1nnc(-c2cnc(NC3(c4ccc(C(F)(F)F)cc4)CC3)nc2)o1 [Example 45, 5-(5-(difluoromethyl)-1,3,4-oxadiazol-2-yl)-N-(1-(4-(trifluoromethyl)phenyl)cyclopropyl) pyrimidin-2-amine]
HDAC1
  IC50: > 30000 nM
HDAC6
  IC50: 64 nM

## COc1ccccc1C1(Nc2ncc(-c3nnc(C(F)F)o3)cn2)CC1 [Example 46, 5-(5-(difluoromethyl)-1,3,4-oxadiazol-2-yl)-N-(1-(2-methoxyphenyl)cyclopropyl)pyrimidin-2-amine]
HDAC1
  IC50: > 30000 nM
HDAC6
  IC50: 23 nM

## FC(F)c1nnc(-c2cnc(NC3(c4ccc(Br)cc4)CC3)nc2)o1 [Example 47, N-(1-(4-bromophenyl)cyclopropyl)-5-(5-(difluoromethyl)-1,3,4-oxadiazol-2-yl)pyrimidin-2-amine]
HDAC1
  IC50: > 30000 nM
HDAC6
  IC50: 27 nM

## N#Cc1ccc(C2(Nc3ncc(-c4nnc(C(F)F)o4)cn3)CC2)cc1 [Example 48, 4-(1-((5-(5-(difluoromethyl)-1,3,4-oxadiazol-2-yl)pyrimidin-2-yl)amino)cyclopropyl) benzonitrile]
HDAC1
  IC50: > 30000 nM
HDAC6
  IC50: 46 nM

## FC(F)c1nnc(-c2cnc(NC3(c4cccc(C(F)(F)F)c4)CC3)nc2)o1 [Example 49, 5-(5-(difluoromethyl)-1,3,4-oxadiazol-2-yl)-N-(1-(3-(trifluoromethyl)phenyl)cyclopropyl) pyrimidin-2-amine]
HDAC1
  IC50: > 30000 nM
HDAC6
  IC50: 16 nM

## FC(F)c1nnc(-c2cnc(NC3(c4ccc(Cl)cc4)CC3)nc2)o1 [Example 50, N-(1-(4-chlorophenyl)cyclopropyl)-5-(5-(difluoromethyl)-1,3,4-oxadiazol-2-yl)pyrimidin-2-amine]
HDAC1
  IC50: > 30000 nM
HDAC6
  IC50: 30 nM

## FC(F)c1nnc(-c2cnc(NC3(c4cccc(Cl)c4)CC3)nc2)o1 [Example 51, N-(1-(3-chlorophenyl)cyclopropyl)-5-(5-(difluoromethyl)-1,3,4-oxadiazol-2-yl)pyrimidin-2-amine]
HDAC1
  IC50: > 30000 nM
HDAC6
  IC50: 15 nM

## FC(F)c1nnc(-c2cnc(NC3(c4ccccc4Cl)CC3)nc2)o1 [Example 52, N-(1-(2-chlorophenyl)cyclopropyl)-5-(5-(difluoromethyl)-1,3,4-oxadiazol-2-yl)pyrimidin-2-amine]
HDAC1
  IC50: > 30000 nM
HDAC6
  IC50: 6 nM

## FC(F)c1nnc(-c2cnc(NC3(c4cccc(OC(F)(F)F)c4)CC3)nc2)o1 [Example 53, 5-(5-(difluoromethyl)-1,3,4-oxadiazol-2-yl)-N-(1-(3-(trifluoromethoxy)phenyl)cyclopropyl) pyrimidin-2-amine]
HDAC1
  IC50: > 30000 nM
HDAC6
  IC50: 23 nM

## FC(F)c1nnc(-c2cnc(NC3(c4ccc(OC(F)(F)F)cc4)CC3)nc2)o1 [Example 54, 5-(5-(difluoromethyl)-1,3,4-oxadiazol-2-yl)-N-(1-(4-(trifluoromethoxy)phenyl)cyclopropyl) pyrimidin-2-amine]
HDAC1
  IC50: > 30000 nM
HDAC6
  IC50: 22 nM

## FC(F)c1nnc(-c2cnc(NC3(c4ccccc4OC(F)(F)F)CC3)nc2)o1 [Example 55, 5-(5-(difluoromethyl)-1,3,4-oxadiazol-2-yl)-N-(1-(2-(trifluoromethoxy)phenyl)cyclopropyl) pyrimidin-2-amine]
HDAC1
  IC50: > 30000 nM
HDAC6
  IC50: 20 nM

## Fc1ccccc1C1(Nc2ncc(-c3nnc(C(F)F)o3)cn2)CC1 [Example 56, 5-(5-(difluoromethyl)-1,3,4-oxadiazol-2-yl)-N-(1-(2-fluorophenyl)cyclopropyl)pyrimidin-2-amine]
HDAC1
  IC50: > 100000 nM
HDAC6
  IC50: 6 nM

## Fc1cccc(C2(Nc3ncc(-c4nnc(C(F)F)o4)cn3)CC2)c1 [Example 57, 5-(5-(difluoromethyl)-1,3,4-oxadiazol-2-yl)-N-(1-(3-fluorophenyl)cyclopropyl)pyrimidin-2-amine]
HDAC1
  IC50: > 100000 nM
HDAC6
  IC50: 15 nM

## FC(F)c1nnc(-c2cnc(NC3(c4ccccc4C(F)(F)F)CC3)nc2)o1 [Example 58, 5-(5-(difluoromethyl)-1,3,4-oxadiazol-2-yl)-N-(1-(2-(trifluoromethyl)phenyl)cyclopropyl) pyrimidin-2-amine]
HDAC1
  IC50: > 30000 nM
HDAC6
  IC50: 40 nM

## Fc1ccc(C2(Nc3ncc(-c4nnc(C(F)F)o4)cn3)CC2)cc1F [Example 59, 5-(5-(difluoromethyl)-1,3,4-oxadiazol-2-yl)-N-(1-(3,4-difluorophenyl)cyclopropyl) pyrimidin-2-amine]
HDAC1
  IC50: > 30000 nM
HDAC6
  IC50: 21 nM

## Fc1cccc(C2(Nc3ncc(-c4nnc(C(F)F)o4)cn3)CC2)c1F [Example 60, 5-(5-(difluoromethyl)-1,3,4-oxadiazol-2-yl)-N-(1-(2,3-difluorophenyl)cyclopropyl) pyrimidin-2-amine]
HDAC1
  IC50: > 30000 nM
HDAC6
  IC50: 22 nM

## Fc1ccc(F)c(C2(Nc3ncc(-c4nnc(C(F)F)o4)cn3)CC2)c1 [Example 61, 5-(5-(difluoromethyl)-1,3,4-oxadiazol-2-yl)-N-(1-(2,5-difluorophenyl)cyclopropyl) pyrimidin-2-amine]
HDAC1
  IC50: > 30000 nM
HDAC6
  IC50: 22 nM

## Fc1ccc(C2(Nc3ncc(-c4nnc(C(F)F)o4)cn3)CC2)c(C(F)(F)F)c1 [Example 63, 5-(5-(difluoromethyl)-1,3,4-oxadiazol-2-yl)-N-(1-(4-fluoro-2-(trifluoromethyl)phenyl)cyclopropyl) pyrimidin-2-amine]
HDAC1
  IC50: > 30000 nM
HDAC6
  IC50: 88 nM

## FC(F)c1nnc(-c2cnc(NC3(c4ccc(Br)nc4)CC3)nc2)o1 [Example 64, N-(1-(6-bromopyridin-3-yl)cyclopropyl)-5-(5-(difluoromethyl)-1,3,4-oxadiazol-2-yl)pyrimidin-2-amine]
HDAC1
  IC50: > 30000 nM
HDAC6
  IC50: 28 nM

## FC(F)c1nnc(-c2cnc(NC3(c4cccnc4)CC3)nc2)o1 [Example 65, 5-(5-(difluoromethyl)-1,3,4-oxadiazol-2-yl)-N-(1-(pyridin-3-yl)cyclopropyl)pyrimidin-2-amine]
HDAC1
  IC50: > 30000 nM
HDAC6
  IC50: 390 nM

## Fc1cc(Cl)ccc1C1(Nc2ncc(-c3nnc(C(F)F)o3)cn2)CC1 [Example 66]
HDAC1
  IC50: > 30000 nM
HDAC6
  IC50: 42 nM

## Fc1ccc(C2(Nc3ncc(-c4nnc(C(F)F)o4)cn3)CC2)nc1 [Example 67, 5-(5-(difluoromethyl)-1,3,4-oxadiazol-2-yl)-N-(1-(5-fluoropyridin-2-yl)cyclopropyl) pyrimidin-2-amine]
HDAC1
  IC50: > 30000 nM
HDAC6
  IC50: 190 nM

## FC(F)c1nnc(-c2cnc(NC3(c4ccc(OCC(F)(F)F)cc4)CC3)nc2)o1 [Example 68, 5-(5-(difluoromethyl)-1,3,4-oxadiazol-2-yl)-N-(1-(4-(2,2,2-trifluoroethoxy)phenyl)cyclopropyl) pyrimidin-2-amine]
HDAC1
  IC50: > 30000 nM
HDAC6
  IC50: 100 nM

## CS(=O)(=O)NCc1ccc(C2(Nc3ncc(-c4nnc(C(F)F)o4)cn3)CC2)cc1 [Example 69, N-(4-(1-((5-(5-(difluoromethyl)-1,3,4-oxadiazol-2-yl)pyrimidin-2-yl)amino)cyclopropyl)benzyl) methanesulfonamide]
HDAC1
  IC50: > 30000 nM
HDAC6
  IC50: 130 nM

## Fc1cc(OC(F)(F)F)ccc1C1(Nc2ncc(-c3nnc(C(F)F)o3)cn2)CC1 [Example 70, 5-(5-(difluoromethyl)-1,3,4-oxadiazol-2-yl)-N-(1-(2-fluoro-4-(trifluoromethoxy)phenyl)cyclopropyl)pyrimidin-2-amine]
HDAC1
  IC50: > 30000 nM
HDAC6
  IC50: 100 nM

## Fc1cc(C(F)(F)F)ccc1C1(Nc2ncc(-c3nnc(C(F)F)o3)cn2)CC1 [Example 71, 5-(5-(difluoromethyl)-1,3,4-oxadiazol-2-yl)-N-(1-(2-fluoro-4-(trifluoromethyl)phenyl)cyclopropyl)pyrimidin-2-amine]
HDAC1
  IC50: > 30000 nM
HDAC6
  IC50: 100 nM

## Fc1cc(F)cc(C2(Nc3ncc(-c4nnc(C(F)F)o4)cn3)CC2)c1 [Example 72, 5-(5-(difluoromethyl)-1,3,4-oxadiazol-2-yl)-N-(1-(3,5-difluorophenyl)cyclopropyl) pyrimidin-2-amine]
HDAC1
  IC50: > 30000 nM
HDAC6
  IC50: 35 nM
